According to PubChem BioAssay (NCI):
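Method: 48-hour compound exposure of cells in 96-well plates, five concentrations, linear interpolation of endpoints. Abbreviation: GI50, concentration required for 50% inhibition of growth. TGI marks complete inhibition of growth.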

Legend:
Assay in all cases: DTP human tumour cell line panel, 48 h
HOP-92 NSCLC = system: HOP-92 NSCLC
HT29 colon = system: HT29 colon
SK-MEL-28 melanoma = system: SK-MEL-28 melanoma
UACC-62 melanoma = system: UACC-62 melanoma
NCI-H522 lung = system: NCI-H522 lung
U251 CNS = system: U251 CNS
PC-3 prostate = system: PC-3 prostate
OVCAR-8 ovarian = system: OVCAR-8 ovarian
M14 melanoma = system: M14 melanoma
HS 578T breast = system: HS 578T breast
SK-OV-3 ovarian = system: SK-OV-3 ovarian
OVCAR-4 ovarian = system: OVCAR-4 ovarian
BT-549 breast = system: BT-549 breast
RXF 393 renal = system: RXF 393 renal
LOX IMVI melanoma = system: LOX IMVI melanoma
EKVX NSCLC = system: EKVX NSCLC
OVCAR-3 ovarian = system: OVCAR-3 ovarian
ACHN renal = system: ACHN renal
SK-MEL-5 melanoma = system: SK-MEL-5 melanoma
UACC-257 melanoma = system: UACC-257 melanoma
SF-539 CNS = system: SF-539 CNS
SW-620 colon = system: SW-620 colon
SNB-75 CNS = system: SNB-75 CNS
MDA-MB-231 breast = system: MDA-MB-231 breast
UO-31 renal = system: UO-31 renal
MALME-3M melanoma = system: MALME-3M melanoma
SF-268 CNS = system: SF-268 CNS
786-0 renal = system: 786-0 renal
SN12C renal = system: SN12C renal
T-47D breast = system: T-47D breast
NCI/ADR-RES ovarian = system: NCI/ADR-RES ovarian
NCI-H460 lung = system: NCI-H460 lung
DU-145 prostate = system: DU-145 prostate
CAKI-1 renal = system: CAKI-1 renal
HOP-62 NSCLC = system: HOP-62 NSCLC
K-562 leukemia = system: K-562 leukemia
TK-10 renal = system: TK-10 renal
SK-MEL-2 melanoma = system: SK-MEL-2 melanoma
OVCAR-5 ovarian = system: OVCAR-5 ovarian
SNB-19 CNS = system: SNB-19 CNS
MDA-MB-435 = system: MDA-MB-435
MCF7 breast = system: MCF7 breast
NCI-H226 lung = system: NCI-H226 lung
HCT-116 colon = system: HCT-116 colon
HCT-15 colon = system: HCT-15 colon
HCC-2998 colon = system: HCC-2998 colon
NCI-H23 lung = system: NCI-H23 lung
IGROV1 ovarian = system: IGROV1 ovarian
A549 NSCLC = system: A549 NSCLC
COLO 205 colon = system: COLO 205 colon
A498 renal = system: A498 renal
KM12 colon = system: KM12 colon
MOLT-4 leukemia = system: MOLT-4 leukemia
HL-60(TB) leukemia = system: HL-60(TB) leukemia
RPMI-8226 leukemia = system: RPMI-8226 leukemia
CCRF-CEM leukemia = system: CCRF-CEM leukemia
SF-295 CNS = system: SF-295 CNS

## O=[N+]([O-])c1ccc2nc3ccccc3cc2c1
HOP-92 NSCLC
  TGI: 18.2 µM
HT29 colon
  TGI: 4.4 µM
SK-MEL-28 melanoma
  TGI: 10.7 µM
UACC-62 melanoma
  TGI: 6.27 µM
NCI-H522 lung
  TGI: 9.79 µM
U251 CNS
  TGI: 10.6 µM
PC-3 prostate
  TGI: 10.2 µM
OVCAR-8 ovarian
  TGI: 2.58 µM
M14 melanoma
  TGI: 18.1 µM
HS 578T breast
  TGI: 27.4 µM
SK-OV-3 ovarian
  TGI: 20.7 µM
OVCAR-4 ovarian
  TGI: 10.4 µM
BT-549 breast
  TGI: 21.7 µM
RXF 393 renal
  TGI: > 100 µM
LOX IMVI melanoma
  TGI: 6.91 µM
EKVX NSCLC
  TGI: 22.9 µM
OVCAR-3 ovarian
  TGI: 1.3 µM
ACHN renal
  TGI: 14.9 µM
SK-MEL-5 melanoma
  TGI: 14.4 µM
UACC-257 melanoma
  TGI: 5.86 µM
SF-539 CNS
  TGI: 6.82 µM
SW-620 colon
  TGI: 14.3 µM
SNB-75 CNS
  TGI: 6.53 µM
MDA-MB-231 breast
  TGI: 8.64 µM
UO-31 renal
  TGI: 16.7 µM
MALME-3M melanoma
  TGI: 13.3 µM
SF-268 CNS
  TGI: 83.4 µM
786-0 renal
  TGI: 14 µM
SN12C renal
  TGI: 5.63 µM
T-47D breast
  TGI: 15.4 µM
NCI/ADR-RES ovarian
  TGI: 3.47 µM
NCI-H460 lung
  TGI: > 100 µM
DU-145 prostate
  TGI: 8.12 µM
CAKI-1 renal
  TGI: 0.0944 µM
HOP-62 NSCLC
  TGI: 6.16 µM
K-562 leukemia
  TGI: 8.79 µM
TK-10 renal
  TGI: 5.24 µM
SK-MEL-2 melanoma
  TGI: 27.8 µM
OVCAR-5 ovarian
  TGI: 7.06 µM
SNB-19 CNS
  TGI: 12.9 µM
MDA-MB-435
  TGI: 3.76 µM
MCF7 breast
  TGI: > 100 µM
NCI-H226 lung
  TGI: 8.97 µM
HCT-116 colon
  TGI: 10.5 µM
HCT-15 colon
  TGI: 10 µM
HCC-2998 colon
  TGI: 3.12 µM
NCI-H23 lung
  TGI: 6.22 µM
IGROV1 ovarian
  TGI: 6.8 µM
A549 NSCLC
  TGI: 8.95 µM
COLO 205 colon
  TGI: 14.9 µM
A498 renal
  TGI: 3.27 µM

## O=C(COc1cccc(/C=C2\CSc3ccccc3C2=O)c1)c1ccc(Cl)cc1
HOP-92 NSCLC
  GI50: 3.27 µM
  TGI: 44.2 µM
KM12 colon
  GI50: 1.29 µM
  TGI: 2.75 µM
HT29 colon
  GI50: 1.43 µM
  TGI: 2.9 µM
SK-MEL-28 melanoma
  GI50: 1.78 µM
  TGI: 3.46 µM
UACC-62 melanoma
  GI50: 1.65 µM
  TGI: 3.24 µM
NCI-H522 lung
  GI50: 1.61 µM
  TGI: 3.67 µM
U251 CNS
  GI50: 1.42 µM
  TGI: 2.72 µM
PC-3 prostate
  GI50: 2.01 µM
  TGI: 5.25 µM
OVCAR-8 ovarian
  GI50: 2.53 µM
  TGI: 6.81 µM
M14 melanoma
  GI50: 1.63 µM
  TGI: 3.09 µM
MOLT-4 leukemia
  GI50: 1.07 µM
  TGI: 3.44 µM
HS 578T breast
  GI50: 2.74 µM
  TGI: 17.2 µM
SK-OV-3 ovarian
  GI50: 8.97 µM
  TGI: 41.9 µM
OVCAR-4 ovarian
  GI50: 3.09 µM
  TGI: > 42.1 µM
HL-60(TB) leukemia
  GI50: 3.57 µM
  TGI: > 21 µM
BT-549 breast
  GI50: 1.69 µM
  TGI: 3.39 µM
RXF 393 renal
  GI50: 2.67 µM
  TGI: 6.73 µM
LOX IMVI melanoma
  GI50: 1.39 µM
  TGI: 2.73 µM
EKVX NSCLC
  GI50: 7.45 µM
  TGI: 17.5 µM
OVCAR-3 ovarian
  GI50: 1.8 µM
  TGI: 3.51 µM
ACHN renal
  GI50: 1.78 µM
  TGI: 3.5 µM
SK-MEL-5 melanoma
  GI50: 1.8 µM
  TGI: 3.41 µM
UACC-257 melanoma
  GI50: 2.68 µM
  TGI: 6.85 µM
SF-539 CNS
  GI50: 3.05 µM
  TGI: 8.22 µM
SW-620 colon
  GI50: 0.231 µM
  TGI: 0.606 µM
SNB-75 CNS
  GI50: 5.04 µM
  TGI: 22.4 µM
MDA-MB-231 breast
  GI50: 4.48 µM
  TGI: 14.8 µM
UO-31 renal
  GI50: 1.63 µM
  TGI: 3.32 µM
MALME-3M melanoma
  GI50: 2.01 µM
  TGI: 4.76 µM
SF-268 CNS
  GI50: 2.16 µM
  TGI: 5.2 µM
786-0 renal
  GI50: 1.4 µM
  TGI: 2.89 µM
RPMI-8226 leukemia
  GI50: > 100 µM
  TGI: > 100 µM
SN12C renal
  GI50: 2.54 µM
  TGI: 8.47 µM
T-47D breast
  GI50: 2.15 µM
  TGI: 5.43 µM
NCI/ADR-RES ovarian
  GI50: 2.66 µM
  TGI: 7.33 µM
NCI-H460 lung
  GI50: 2.88 µM
  TGI: 8.38 µM
DU-145 prostate
  GI50: 2.31 µM
  TGI: 5.61 µM
CAKI-1 renal
  GI50: 3.97 µM
  TGI: 10.1 µM
HOP-62 NSCLC
  GI50: 2.15 µM
  TGI: 6.12 µM
TK-10 renal
  GI50: 1.88 µM
  TGI: 4.42 µM
SK-MEL-2 melanoma
  GI50: 1.76 µM
  TGI: 3.45 µM
OVCAR-5 ovarian
  GI50: 1.85 µM
  TGI: 4.08 µM
SNB-19 CNS
  GI50: 3.18 µM
  TGI: 9.38 µM
MDA-MB-435
  GI50: 1.64 µM
  TGI: 3.44 µM
MCF7 breast
  GI50: 0.458 µM
  TGI: 1.81 µM
CCRF-CEM leukemia
  GI50: 0.325 µM
NCI-H226 lung
  GI50: 4.43 µM
  TGI: 16 µM
HCT-116 colon
  GI50: 0.689 µM
  TGI: 1.95 µM
HCT-15 colon
  GI50: 1.92 µM
  TGI: 5.37 µM
HCC-2998 colon
  GI50: 1.47 µM
  TGI: 2.8 µM
NCI-H23 lung
  GI50: 1.92 µM
  TGI: 4.15 µM
SF-295 CNS
  GI50: 1.71 µM
  TGI: 3.44 µM
IGROV1 ovarian
  GI50: 2.02 µM
  TGI: 4.26 µM
A549 NSCLC
  GI50: 11.8 µM
  TGI: 65.6 µM
COLO 205 colon
  GI50: 2.89 µM
  TGI: 7.35 µM
A498 renal
  GI50: 3.95 µM
  TGI: 8.69 µM
